Assay results taken from patent US10202387B2, “Heterocyclyl linked imidazopyridazine derivatives as PI3KB inhibitors” (Janssen Pharmaceutica NV, priority 2014, dated 2019).

Key:
[1] = system: Akt phosphorylated at Thr308 in PC-3 cells; assay: Cellular assay: phosphorylation of Akt (Thr308) in PC-3 cells, MSD ELISA; format: cell-based; details: Homo sapiens, 1 h, 60 min incubation with compound, read-out: IC50 pAkt_Thr308
Method: (§1) Cellular activity of PI3Kβ inhibitors was determined by quantifying the phosphorylation of Akt in PC-3 cells. Akt phosphorylated at Ser473 and Thr308 were measured using an enzyme-linked immunosorbent assay (ELISA; Meso Scale Discovery (MSD). Gaithersburg, Md.) and specific primary antibodies from MSD.
(§2) On day 1, PC3 cells (ATCC […]) were seeded into PerkinElmer MW96 plates at 25.000 cells per well, in 75 μl complete culture medium (DMEM (Dulbecco's Modified Eagle's Medium) high glucose. AQmedia™, D0819, Sigma-Aldrich) containing 10% heat inactivated FCS (Fetal Bovine Serum) and incubated at 37° C., 5% CO2 during 24 hours. On day 2, compound or DMSO (dimethyl sulfoxide) (0.3%) was added and cells were further incubated for 60 min at 37° C., 5% CO2 in a total volume of 100 μl of medium.
(§3) The phosphoprotein assay was executed according to vendor instructions in the Phospho-Akt (Ser473) Assay Whole Cell Lysate Kit (MSD #K15100D-3) and the Phospho-Akt (Thr308) Assay Whole Cell Lysate Kit (MSD #K151DYD-3) using the lysis, blocking and wash buffer provided.
(§4) Briefly, at the end of the cell treatment period, media were removed by aspiration and adherent cells were lysed in 50 μl ice-cold lysis buffer. MSD plates are supplied pre-coated with capture antibodies for Phospho-Akt (Ser473 and Thr308). After blocking, lysates from tissue culture plates were added and plates were washed. Then, a solution containing the detection antibody (anti-total Akt conjugated with an electrochemiluminescent compound-MSD Sulfo-tag label) was added. The signals were detected using an MSD SECTOR Imager 6000 and are proportional to the phospho-Akt titres.
(§5) Data were processed. The percentage of inhibition was plotted against the log concentration of test compounds, and the sigmoidal log concentration-effect curve of best fit was calculated by nonlinear regression analysis. From these concentration-response curves, the IC50 values were calculated. Five concentrations were used for curve fitting.

[2] = molecular target: T1, PIK3Cδ_h (Homo sapiens, UniProt O00329); assay: Enzyme binding assay (KINOMEscan); details: DiscoveRx
T1 construct: purchased DiscoveRx Corporation, San Diego (KINOMEscan service)
T1 sequence (O00329 1-1044): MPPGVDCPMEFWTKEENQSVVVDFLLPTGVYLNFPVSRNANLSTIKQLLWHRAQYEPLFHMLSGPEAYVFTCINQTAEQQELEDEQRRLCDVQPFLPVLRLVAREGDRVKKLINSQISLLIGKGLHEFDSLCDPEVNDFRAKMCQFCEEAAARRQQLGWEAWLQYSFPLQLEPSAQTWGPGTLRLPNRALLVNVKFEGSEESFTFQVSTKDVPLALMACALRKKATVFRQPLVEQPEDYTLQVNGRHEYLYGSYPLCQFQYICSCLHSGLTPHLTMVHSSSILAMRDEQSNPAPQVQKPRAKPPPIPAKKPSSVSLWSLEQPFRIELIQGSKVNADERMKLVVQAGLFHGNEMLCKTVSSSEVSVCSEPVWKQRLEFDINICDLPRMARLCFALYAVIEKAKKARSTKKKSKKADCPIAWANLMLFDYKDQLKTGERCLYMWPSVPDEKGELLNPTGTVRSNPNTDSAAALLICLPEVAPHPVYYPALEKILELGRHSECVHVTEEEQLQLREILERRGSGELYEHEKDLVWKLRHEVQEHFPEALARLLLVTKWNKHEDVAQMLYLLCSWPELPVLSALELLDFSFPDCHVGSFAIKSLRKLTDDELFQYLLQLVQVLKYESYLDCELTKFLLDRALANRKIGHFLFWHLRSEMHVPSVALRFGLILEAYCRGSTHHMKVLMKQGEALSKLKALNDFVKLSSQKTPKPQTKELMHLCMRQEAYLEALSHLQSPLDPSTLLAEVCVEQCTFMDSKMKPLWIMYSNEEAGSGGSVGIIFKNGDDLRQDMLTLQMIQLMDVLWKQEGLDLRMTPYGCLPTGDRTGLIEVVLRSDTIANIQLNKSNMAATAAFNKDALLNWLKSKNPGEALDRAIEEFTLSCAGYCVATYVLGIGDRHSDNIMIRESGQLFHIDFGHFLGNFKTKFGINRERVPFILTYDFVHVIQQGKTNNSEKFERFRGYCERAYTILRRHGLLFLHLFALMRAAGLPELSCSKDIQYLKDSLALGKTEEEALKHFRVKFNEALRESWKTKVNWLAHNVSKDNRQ
Method: (§6) Enzyme Binding Assays (KINOMEscan®)
(§7) Kinase enzyme binding affinities of compounds disclosed herein were determined using the KINOMEscan technology performed by DiscoveRx Corporation, San Diego, Calif., USA (www.kinomescan.com). Table A reports the obtained Kd values (nM), with the Kd being the inhibitor binding constant: […]

[3] = molecular target: T2, MTOR_h (Homo sapiens, UniProt P42345); assay: Enzyme binding assay (KINOMEscan); details: DiscoveRx
T2 construct: purchased DiscoveRx Corporation, San Diego (KINOMEscan service)
Method: as §6, §7

[4] = molecular target: T3, PIK3Cγ_h (Homo sapiens, UniProt P48736); assay: Enzyme binding assay (KINOMEscan); details: DiscoveRx
T3 construct: purchased DiscoveRx Corporation, San Diego (KINOMEscan service)
T3 sequence (P48736 whole entry): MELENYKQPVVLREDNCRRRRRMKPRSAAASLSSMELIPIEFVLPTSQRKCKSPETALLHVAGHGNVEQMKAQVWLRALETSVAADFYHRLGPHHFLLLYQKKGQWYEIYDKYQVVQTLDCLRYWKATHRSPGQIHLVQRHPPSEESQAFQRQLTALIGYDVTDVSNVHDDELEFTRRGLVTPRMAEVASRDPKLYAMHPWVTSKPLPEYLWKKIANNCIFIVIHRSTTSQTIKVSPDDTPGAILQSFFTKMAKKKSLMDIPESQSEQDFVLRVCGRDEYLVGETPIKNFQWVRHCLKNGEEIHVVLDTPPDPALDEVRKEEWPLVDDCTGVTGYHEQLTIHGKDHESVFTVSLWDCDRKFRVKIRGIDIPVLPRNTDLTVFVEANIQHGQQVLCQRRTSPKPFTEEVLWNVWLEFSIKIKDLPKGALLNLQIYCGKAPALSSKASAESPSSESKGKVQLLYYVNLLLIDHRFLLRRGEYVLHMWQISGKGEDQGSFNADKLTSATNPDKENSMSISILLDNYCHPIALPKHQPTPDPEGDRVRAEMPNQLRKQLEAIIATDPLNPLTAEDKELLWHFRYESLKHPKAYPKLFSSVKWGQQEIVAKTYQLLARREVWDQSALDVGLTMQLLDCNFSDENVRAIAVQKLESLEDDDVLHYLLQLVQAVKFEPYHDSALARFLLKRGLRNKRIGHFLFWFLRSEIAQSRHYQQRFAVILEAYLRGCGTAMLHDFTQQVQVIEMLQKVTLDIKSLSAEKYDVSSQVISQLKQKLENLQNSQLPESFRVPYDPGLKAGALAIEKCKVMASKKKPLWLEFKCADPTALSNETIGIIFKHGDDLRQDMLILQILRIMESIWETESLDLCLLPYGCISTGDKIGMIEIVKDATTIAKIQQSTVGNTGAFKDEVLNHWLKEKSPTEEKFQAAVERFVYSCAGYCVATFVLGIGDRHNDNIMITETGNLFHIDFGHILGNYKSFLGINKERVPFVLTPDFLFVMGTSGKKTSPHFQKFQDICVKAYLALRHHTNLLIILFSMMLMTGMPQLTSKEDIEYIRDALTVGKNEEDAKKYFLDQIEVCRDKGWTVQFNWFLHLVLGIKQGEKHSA
Method: as §6, §7

[5] = molecular target: T4, PIK3Cβ_h (Homo sapiens, UniProt P42338); assay: Enzyme binding assay (KINOMEscan); details: DiscoveRx
T4 construct: purchased DiscoveRx Corporation, San Diego (KINOMEscan service)
T4 sequence (P42338 whole entry): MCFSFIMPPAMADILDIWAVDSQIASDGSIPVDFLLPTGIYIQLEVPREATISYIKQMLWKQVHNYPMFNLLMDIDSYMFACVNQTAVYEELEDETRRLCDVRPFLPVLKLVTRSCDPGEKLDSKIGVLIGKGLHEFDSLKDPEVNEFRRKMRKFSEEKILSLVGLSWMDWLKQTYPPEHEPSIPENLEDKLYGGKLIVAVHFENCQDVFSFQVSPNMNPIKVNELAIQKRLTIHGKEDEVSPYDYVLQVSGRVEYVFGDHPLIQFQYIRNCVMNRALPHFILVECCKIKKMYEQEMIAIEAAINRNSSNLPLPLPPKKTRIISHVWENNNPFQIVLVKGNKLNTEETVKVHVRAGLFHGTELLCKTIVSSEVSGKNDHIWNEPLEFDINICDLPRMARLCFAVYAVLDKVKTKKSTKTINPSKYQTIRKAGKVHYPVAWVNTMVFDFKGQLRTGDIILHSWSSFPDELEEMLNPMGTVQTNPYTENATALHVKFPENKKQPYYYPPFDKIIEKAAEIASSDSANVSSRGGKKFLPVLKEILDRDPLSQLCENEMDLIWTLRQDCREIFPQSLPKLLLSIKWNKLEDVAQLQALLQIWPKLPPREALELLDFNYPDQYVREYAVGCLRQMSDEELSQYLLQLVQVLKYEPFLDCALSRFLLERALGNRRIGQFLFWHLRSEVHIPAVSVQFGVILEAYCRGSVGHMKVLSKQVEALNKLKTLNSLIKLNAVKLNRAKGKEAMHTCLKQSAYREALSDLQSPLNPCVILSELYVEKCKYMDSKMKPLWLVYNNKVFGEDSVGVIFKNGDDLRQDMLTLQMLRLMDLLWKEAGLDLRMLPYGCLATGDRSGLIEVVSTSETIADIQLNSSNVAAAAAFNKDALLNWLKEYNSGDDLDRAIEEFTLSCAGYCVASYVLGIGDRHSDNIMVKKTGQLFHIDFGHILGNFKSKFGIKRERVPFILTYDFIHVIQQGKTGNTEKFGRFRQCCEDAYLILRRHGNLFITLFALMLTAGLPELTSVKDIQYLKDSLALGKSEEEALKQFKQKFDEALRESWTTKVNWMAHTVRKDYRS
Method: as §6, §7

[6] = molecular target: T5, PIK3Cα_h (Homo sapiens, UniProt P42336); assay: Enzyme binding assay (KINOMEscan); details: DiscoveRx
T5 construct: purchased DiscoveRx Corporation, San Diego (KINOMEscan service)
T5 sequence (P42336 whole entry): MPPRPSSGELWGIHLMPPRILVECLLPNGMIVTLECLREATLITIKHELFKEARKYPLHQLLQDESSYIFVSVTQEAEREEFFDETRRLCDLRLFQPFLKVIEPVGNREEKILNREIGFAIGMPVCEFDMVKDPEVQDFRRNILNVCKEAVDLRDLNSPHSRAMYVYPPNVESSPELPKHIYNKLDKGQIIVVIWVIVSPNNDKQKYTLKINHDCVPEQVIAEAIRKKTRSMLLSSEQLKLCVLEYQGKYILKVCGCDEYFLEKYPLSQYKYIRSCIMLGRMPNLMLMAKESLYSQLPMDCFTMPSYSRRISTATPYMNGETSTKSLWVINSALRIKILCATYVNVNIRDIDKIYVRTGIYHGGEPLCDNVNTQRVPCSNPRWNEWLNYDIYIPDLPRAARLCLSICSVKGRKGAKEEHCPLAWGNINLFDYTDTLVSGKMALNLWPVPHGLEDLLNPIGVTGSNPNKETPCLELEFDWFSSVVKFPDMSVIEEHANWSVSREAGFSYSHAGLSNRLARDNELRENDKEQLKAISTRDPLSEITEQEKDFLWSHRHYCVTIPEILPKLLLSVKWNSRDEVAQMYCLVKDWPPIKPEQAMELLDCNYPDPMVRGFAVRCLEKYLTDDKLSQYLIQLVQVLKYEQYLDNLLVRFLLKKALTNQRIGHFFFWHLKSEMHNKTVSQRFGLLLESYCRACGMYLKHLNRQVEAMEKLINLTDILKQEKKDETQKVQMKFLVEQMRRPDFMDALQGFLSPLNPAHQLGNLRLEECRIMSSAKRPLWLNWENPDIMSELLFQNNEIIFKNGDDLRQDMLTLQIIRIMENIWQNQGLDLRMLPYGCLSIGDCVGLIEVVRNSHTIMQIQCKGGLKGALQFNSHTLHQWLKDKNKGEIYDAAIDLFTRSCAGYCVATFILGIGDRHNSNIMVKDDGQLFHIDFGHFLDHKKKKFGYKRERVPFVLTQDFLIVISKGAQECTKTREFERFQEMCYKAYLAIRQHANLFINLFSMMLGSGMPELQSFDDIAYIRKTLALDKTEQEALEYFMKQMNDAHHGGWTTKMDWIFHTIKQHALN
Method: as §6, §7

[7] = system: Akt phosphorylated at Ser473 in PC-3 cells; assay: Cellular assay: phosphorylation of Akt (Ser473) in PC-3 cells, MSD ELISA; format: cell-based; details: Homo sapiens, 1 h, 60 min incubation with compound, read-out: IC50 pAkt_S473
Method: as §1, §2, §3, §4, §5

IC50 [1] [nM]	Kd [2] [nM]	Kd [3] [nM]	Kd [4] [nM]	Kd [5] [nM]	Kd [6] [nM]	IC50 [7] [nM]	Structure (SMILES)
51	14	6070	3890	0.8	475	95	Cc1c(Cc2c(CN3CC(C)NC(C)C3)nc3c(-c4ncc[nH]4)cc(N4CCOCC4)nn23)cccc1C(F)(F)F (stereo not drawn) [Compound 18]
~74	224	18200	> 30200	1.5	6310	87	Cc1c(Cc2c(CN3CCC4(CCS(=O)(=O)C4)C3)nc3c(N)cc(N4CCOCC4)nn23)cccc1C(F)(F)F (stereo not drawn) [Compound 34]
43	10	1550	589	0.4	240	62	Cc1c(Cc2c(CN3CC4(CC(O)C4)C3)nc3c(-c4cnc[nH]4)cc(N4CCOCC4)nn23)cccc1C(F)(F)F [Compound 27]
44	7	3550	977	0.2	1380	28	Cc1c(Cc2c(CN3CC4(CCCNC4)C3)nc3c(N)cc(N4CCOCC4)nn23)cccc1C(F)(F)F [Compound 13]
> 513	112	> 30200	28200	0.7	6310	> 513	Cc1c(Cc2c(CN3CC4(CC(O)C4)C3)nc3c(C(=O)O)cc(N4CCOCC4)nn23)cccc1C(F)(F)F [Compound 29]
> 513	13	21400	15100	0.2	372	> 513	Cc1c(Cc2c(CN3CC4(C3)CS(=O)(=O)C4)nc3c(C(=O)O)cc(N4CCOCC4)nn23)cccc1C(F)(F)F [Compound 28]
66	479	> 30200	> 30200	4.8	> 30200	117	Cc1c(Cc2c(CN3CCCC34CCS(=O)(=O)C4)nc3c(N)cc(N4CCOCC4)nn23)cccc1C(F)(F)F (stereo not drawn) [Compound 31]
18	7	3220	8640	0.2	2050	27	Cc1c(Cc2c(CNC(=O)[C@@H]3CCCN3)nc3c(N)cc(N4CCOCC4)nn23)cccc1C(F)(F)F [Compound 35]
71	219	> 30200	> 30200	3.6	12000	~132	Cc1c(Cc2c(CN3CCC(CS(C)(=O)=O)CC3)nc3c(N)cc(N4CCOCC4)nn23)cccc1C(F)(F)F [Compound 5]
~41	22	7760	2190	1.4	537	30	Cc1c(Cc2c(CN3CCCC(CO)C3)nc3c(-c4cnc[nH]4)cc(N4CCOCC4)nn23)cccc1C(F)(F)F (stereo not drawn) [Compound 15]
66	191	11000	16200	1.7	11500	~89	Cc1c(Cc2c(CN3CC(O)C3)nc3c(N)cc(N4CCOCC4)nn23)cccc1C(F)(F)F [Compound 3]
~87	89	11000	8510	1.7	18600	85	Cc1c(Cc2c(CN3CCCC4(CNC4)C3)nc3c(N)cc(N4CCOCC4)nn23)cccc1C(F)(F)F [Compound 12]
4	12	8130	20000	0.3	617	4	[2H]C1([2H])OC([2H])([2H])C([2H])([2H])N(c2cc(N)c3nc(CN4CC5(C4)CS(=O)(=O)C5)c(Cc4cccc(C(F)(F)F)c4C)n3n2)C1([2H])[2H] [Compound 30]
38	82	7390	11700	0.3	3550	44	Cc1c(Cc2c(CNC(=O)[C@@H]3CCCN3C)nc3c(N)cc(N4CCOCC4)nn23)cccc1C(F)(F)F [Compound 39]
3	8	11400	27600	0.5	436	4	Cc1c(Cc2c(CN3CC4(C3)CS(=O)(=O)C4)nc3c(N)cc(N4CCOCC4)nn23)cccc1C(F)(F)F [Compound 7]
~48	52	5750	> 30200	0.6	4790	~42	Cc1c(Cc2c(CN3CC(C)NC(C)C3)nc3c(N)cc(N4CCOCC4)nn23)cccc1C(F)(F)F (stereo not drawn) [Compound 10]
31	14	355	> 30200	0.2	1000	54	Cc1c(Cc2c(CNC(=O)[C@@H]3C[C@@H](F)CN3)nc3c(N)cc(N4CCOCC4)nn23)cccc1C(F)(F)F [Compound 38]
~69	129	20000	4170	1.1	1290	107	Cc1c(Nc2c(CN3CC(C)NC(C)C3)nc3c(C(N)=O)cc(N4CCOCC4)nn23)cccc1C(F)(F)F (stereo not drawn) [Compound 21]
28	17	2000	5700	0.7	453	38	Cc1c(Cc2c(CN3CC(C)NC(C)C3)nc3c(-c4cnc[nH]4)cc(N4CCOCC4)nn23)cccc1C(F)(F)F (stereo not drawn) [Compound 16]
69	40	13800	4900	0.3	7410	68	Cc1c(Cc2c(CN3CCC(N)CC3)nc3c(N)cc(N4CCOCC4)nn23)cccc1C(F)(F)F [Compound 14]
18	48	6760	21400	0.4	5370	60	Cc1c(Cc2c(CNC(=O)[C@@H]3C[C@@H](O)CN3C)nc3c(N)cc(N4CCOCC4)nn23)cccc1C(F)(F)F [Compound 41]
